In PubChem BioAssay (NCI):
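GI50: concentration for 50% inhibition of growth. Definition used: TGI = concentration required for complete inhibition of growth.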

Experiments:
Test in all cases: DTP human tumour cell line panel, 384-well format
A498 renal = system: A498 renal
ACHN renal = system: ACHN renal
DU-145 prostate = system: DU-145 prostate
HS 578T breast = system: HS 578T breast
MDA-MB-231 breast = system: MDA-MB-231 breast
MDA-MB-468 breast = system: MDA-MB-468 breast
MOLT-4 leukemia = system: MOLT-4 leukemia
NCI-H23 lung = system: NCI-H23 lung
OVCAR-4 ovarian = system: OVCAR-4 ovarian
OVCAR-5 ovarian = system: OVCAR-5 ovarian
SF-268 CNS = system: SF-268 CNS
SK-MEL-5 melanoma = system: SK-MEL-5 melanoma
SNB-19 CNS = system: SNB-19 CNS

C[C@H](NC(=O)CCC(F)(F)F)C(=O)N[C@@H]1C(=O)N(CCO)c2ncccc2-c2ccccc21
GI50 (A498 renal): > 100 µM | TGI (A498 renal): > 100 µM | GI50 (ACHN renal): > 100 µM | TGI (ACHN renal): > 100 µM | GI50 (DU-145 prostate): > 100 µM | TGI (DU-145 prostate): > 100 µM | GI50 (HS 578T breast): > 100 µM | TGI (HS 578T breast): > 100 µM | GI50 (MDA-MB-231 breast): > 100 µM | TGI (MDA-MB-231 breast): > 100 µM | GI50 (MDA-MB-468 breast): > 100 µM | TGI (MDA-MB-468 breast): > 100 µM | GI50 (MOLT-4 leukemia): 29.8 µM | TGI (MOLT-4 leukemia): > 100 µM | GI50 (NCI-H23 lung): > 100 µM | TGI (NCI-H23 lung): > 100 µM | GI50 (OVCAR-4 ovarian): > 100 µM | TGI (OVCAR-4 ovarian): > 100 µM | GI50 (OVCAR-5 ovarian): > 100 µM | TGI (OVCAR-5 ovarian): > 100 µM | GI50 (SF-268 CNS): > 100 µM | TGI (SF-268 CNS): > 100 µM | GI50 (SK-MEL-5 melanoma): > 100 µM | TGI (SK-MEL-5 melanoma): > 100 µM | GI50 (SNB-19 CNS): > 100 µM | TGI (SNB-19 CNS): > 100 µM
